Source: patent publication EP3925667A1, “SELECTIVE TMPRSS2 INHIBITORS AND MEDICAL USE THEREOF” (priority 2020, dated 2021)
pIC50: −log10 of the molar value. Counter-ions that a name gives are not always drawn. Like-named read-outs stand apart in the source and are kept apart here.

Columns and labels:
[1] = test system: pseudotyped particle LV(Luc)-CoV2 in CaCo-2 cells; details: 2 h
Recomb. Human Thrombin [2] = biological target: T1, Recomb. Human Thrombin (Homo sapiens, UniProt P00734); assay: Protease Thrombin inhibition assay, chromogenic substrate D-Phe-Homopro-Arg-pNA; format: biochemical; details: 30 minutes preincubation at room temperature, 100 µM reference substrate, absorption 405 nm, 25°C
T1 construct: purchased R&D systems 1473-SE-010
Procedure: (§1) Protease Thrombin inhibiton assay - Calculation of IC50 values
Protease: Recomb. Human Thrombin, Bought 30.01.2020; Art. 1473-SE-010; Company: R&D systems Reference substrate: D-Phe-Homopro-Arg-pNA; Company: Bachem; Art no.: 4008145.0050
• Reconstitute at 100 µg/ml (1428.57 nM) in sterile 50 mM HEPES and 640 mM NaCl • Diluted to a stock solution c = 0.04 µg/µl with TNC buffer
(§2) • Dilute and aliquote 2.1 mg of reference substrate to a concentration of c = 2000 µM in TNC. Dilute and aliquote further to a concentration of c = 200 µM in TNC buffer. Endconcentration in well: c = 100 µM.
(§3) • Inhibitor was diluted with pure DMSO to a concentration of 10 mM • This 10 mM stock solution was further diluted:
(§4) • 25 mM Tris, 150 mM NaCl, 5 mM CaCl2, 0,01% Triton X-100, pH = 8 (stored at 8°C)
(§5) • Total volume per well: 100µl • Temperature: 25°C • Kinetic interval: every 2 minutes • Absorption: 405 nm • Number of flashes: 25 • Shaking before measurememt: 3s • Shaking amplitude: 5 mm
(§6) • Per well: add 50 µl of Thrombin/TNC solution (c = 0.04 µg/µl), add 1 µl of inhibitor. • Incubate for 30 minutes at room temperature • After incubation, add […] of c = 200 µM reference substrate Endconcentration of substances per well: c = 100 µM of reference substrate, c = 0.002 µg of […] solution, 1% DMSO
(§7) • Graph pad prism 7 was used to analyze the data. The velocity (change of absorbance over time) was plotted against the concentration. A non linear regression was performed with the following equation: [inhibitor] vs. response - Variable slope (four parameters)

[3] = biological target: T2, Recomb. Human Coag. Factor Xa protein (Homo sapiens, UniProt P00742); assay: Protease Factor Xa inhibition assay, chromogenic substrate Bz-Ile-Glu-Gly-Arg-pNA; format: biochemical; details: 0.35 nM Factor Xa, 200 µM reference substrate, 30 minutes preincubation, absorption 405 nm, 25°C
T2 construct: purchased Bio-Techne GmbH 1063-SE-010
T2 sequence (P00742 235-488 limits assumed): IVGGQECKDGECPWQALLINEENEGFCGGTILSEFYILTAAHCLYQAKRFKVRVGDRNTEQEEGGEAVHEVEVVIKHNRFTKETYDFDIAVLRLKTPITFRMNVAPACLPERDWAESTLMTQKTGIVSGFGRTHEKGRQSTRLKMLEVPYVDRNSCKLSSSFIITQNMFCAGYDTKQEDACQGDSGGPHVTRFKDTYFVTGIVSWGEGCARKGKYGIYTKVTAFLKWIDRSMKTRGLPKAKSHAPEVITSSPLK
T2 sequence (P00742 41-179 partner limits assumed): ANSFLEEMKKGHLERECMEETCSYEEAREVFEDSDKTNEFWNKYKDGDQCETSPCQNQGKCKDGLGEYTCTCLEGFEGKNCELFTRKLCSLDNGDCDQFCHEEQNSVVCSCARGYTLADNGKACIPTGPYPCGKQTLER
Procedure: (§8) Protease Factor Xa inhibiton assay - Calculation of IC50 values
(§9) Recomb. Human Coag. Factor Xa protein, CF: Bought 09.12.2020; Art. 1063-SE-010; Company: Bio-Techne GmbH
(§10) • Reconstitute at 100 µg/ml in sterile 25 mM MES, 150 mM NaCl, 5 mM CaCl2, pH6 • Diluted to a stock solution of 1000 nM with TNC buffer • This stock solution was further diluted with TNC buffer to a concentration of 35 nM and aliquoted. Stored at -20°C. Endconcentration in well: c = 0.35 nM
• Delivered: 5mg. Dilute and aliquote reference substrate to a concentration of 10 mM in pure DMSO. Endconcentration in well: c = 200 µM (= KM for Factor Xa)
as §3, §4, §5
(§11) • Per well: add 97 µl TNC buffer, add 1 µl of c = 35 nM solution of Factor Xa, add 1 µl of inhibitor • Incubate for 30 minutes at room temperature • After incubation, add 1 µl of c = 10 mM reference substrate Endconcentration of substances per well: c = 200 µM of reference substrate, c = 0.35 nM of Factor Xa solution, 2% DMSO
as §7, with “Graph” for “• Graph”, “parameters) Table 1. IC50 values of inventive inhibitors with respect to TMPRSS2, thrombin and Factor Xa” for “parameters)”

TMPRSS2 [4] = biological target: T3, TMPRSS2 (Homo sapiens, UniProt O15393); assay: TMPRSS2 inhibition, IC50 (Table 1); format: biochemical; details: nonlinear regression, variable slope (four parameters)
T3 sequence (O15393 whole entry): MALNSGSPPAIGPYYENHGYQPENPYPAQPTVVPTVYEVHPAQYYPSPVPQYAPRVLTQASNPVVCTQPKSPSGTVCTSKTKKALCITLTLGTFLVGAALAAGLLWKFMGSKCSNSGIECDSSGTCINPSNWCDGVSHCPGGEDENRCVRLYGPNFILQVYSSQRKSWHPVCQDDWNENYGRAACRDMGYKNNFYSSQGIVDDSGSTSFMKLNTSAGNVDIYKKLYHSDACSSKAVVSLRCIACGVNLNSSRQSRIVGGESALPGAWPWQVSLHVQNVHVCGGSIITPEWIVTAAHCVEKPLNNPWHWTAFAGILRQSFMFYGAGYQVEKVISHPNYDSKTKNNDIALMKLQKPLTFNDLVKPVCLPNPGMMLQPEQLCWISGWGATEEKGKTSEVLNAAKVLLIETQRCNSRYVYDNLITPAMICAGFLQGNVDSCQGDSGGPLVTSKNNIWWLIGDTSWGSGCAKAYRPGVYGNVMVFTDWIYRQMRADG

TMPRSS2 [5] = biological target: T3, TMPRSS2; assay: TMPRSS2 inhibition, IC50 (Table 1); format: biochemical; details: nonlinear regression, variable slope (four parameters); remark: listed apart in the source
From the text: Inhibitors were screened against TMPRSS2, thrombin and factor Xa.

SARS-CoV2 WT [6] = details: 2 h
SARS-CoV2 WT [7] = assay: microbe, parasite or virus in culture; format: cell-based; details: Severe acute respiratory syndrome coronavirus 2
[8] = test system: pseudotyped particle LV(Luc)-CoV2 in CaCo-2 cells; assay: microbe, parasite or virus in culture; format: cell-based, SARS-CoV2; details: Severe acute respiratory syndrome coronavirus 2, 2 h incubation with inhibitor before transduction, luciferase activity at 48 h post transduction
[9] = biological target: T2, Recomb. Human Coag. Factor Xa protein; assay: Protease Factor Xa inhibition assay, chromogenic substrate Bz-Ile-Glu-Gly-Arg-pNA; format: biochemical; details: 0.35 nM Factor Xa, 200 µM reference substrate, 30 minutes preincubation, absorption 405 nm, 25°C; remark: listed apart in the source
Procedure: as §8, §9, §10
• Delivered: 5mg. Dilute and aliquote reference substrate to a concentration of 10 mM in pure DMSO.
as §3, §4, §5, §11
as §7, with “Graph” for “• Graph”, “parameters) Table 1. IC50 values of inventive inhibitors with respect to TMPRSS2, thrombin and Factor Xa” for “parameters)”

Recomb. Human Thrombin [10] = biological target: T1, Recomb. Human Thrombin; assay: Protease Thrombin inhibition assay, chromogenic substrate D-Phe-Homopro-Arg-pNA; format: biochemical
Procedure: as §1, §2, §3, §4, §6, §7

Structure (SMILES)	pIC50 [1]	pIC50 (Recomb. Human Thrombin [2])	pIC50 [3]	pIC50 (TMPRSS2 [4])	pIC50 (SARS-CoV2 WT [6])	pIC50 [9]	also measured
CC[C@H](C)[C@H](NC(=O)[C@H](C)NC(=O)[C@H](CCC(=O)O)NC(=O)[C@H](CCC(=O)O)NC(=O)[C@H](CC(C)C)NC(=O)[C@H](CCCCN)NC(=O)[C@H](CCCCN)NC(=O)[C@H](CCSC)NC(=O)[C@H](CCC(=O)O)NC(=O)[C@H](Cc1ccc(O)cc1)NC(=O)[C@H](CCC(=O)O)NC(=O)[C@H](CC(C)C)NC(=O)[C@H](CC(=O)O)NC(=O)[C@H](CC(C)C)NC(=O)[C@H](Cc1ccccc1)NC(=O)[C@@H](NC(=O)[C@@H](NC(=O)[C@H](CC(N)=O)NC(=O)[C@@H](NC(=O)[C@H](CCC(N)=O)NC(=O)[C@H](CC(=O)O)NC(=O)[C@H](CC(C)C)NC(=O)[C@@H](N)CO)[C@@H](C)CC)C(C)C)[C@@H](C)O)C(=O)N[C@@H](CCCCN)C(=O)N[C@@H](CCCCN)C(=O)N[C@@H](CC(C)C)C(=O)N[C@@H](CCC(=O)O)C(=O)N[C@@H](CCC(=O)O)C(=O)N[C@@H](CO)C(=O)N[C@@H](Cc1ccc(O)cc1)C(=O)N[C@H](C(=O)N[C@@H](CC(=O)O)C(=O)N[C@@H](CC(C)C)C(=O)N[C@@H](CCCCN)C(=O)N[C@@H](CCC(=O)O)C(=O)N[C@@H](CC(C)C)C(=O)O)[C@@H](C)CC [Ref.9, EK1, reference compound]	6.64	–	–	–	–	–	–
CC(=O)N[C@@H](CCC(=O)O)C(=O)N[C@@H](CCC(N)=O)C(=O)N1CCC[C@H]1C(=O)N[C@@H](CCCNC(=N)N)C(=O)c1nc2ccccc2s1 [Compound 5, Ac-EQPR-kbt]	5.68	< 4.00	< 4.00	5.54	–	–	–
[H]/N=C(/N)c1ccc(NCc2nc3cc(C(=O)N(CCC(=O)O)c4ccccn4)ccc3n2C)cc1 [Ref.2, Dabigatran]	–	–	–	–	–	–	pIC50 (TMPRSS2 [5]): < 4.00
CC(=O)N[C@@H](C)C(=O)N[C@@H](CCC(=O)O)C(=O)N[C@@H](CCC(N)=O)C(=O)N[C@@H](CCCNC(=N)N)C(=O)c1nc2ccccc2s1 [Compound 2, Ac-AEQR-kbt]	6.33	< 4.00	6.00	5.78	4.72	–	–
CN(C)C(=O)COC(=O)Cc1ccc(OC(=O)c2ccc(NC(=N)N)cc2)cc1 [Ref.5, Camostat mesylate]	–	–	–	–	–	5.28	pIC50 (SARS-CoV2 WT [7]): 4.49; pIC50 [8]: 6.30
N=C(N)c1ccc(CNC(=O)[C@@H]2CCN2C(=O)[C@H](NCC(=O)O)C2CCCCC2)cc1 [Ref.7, Melagatran]	–	–	–	–	–	6.67	–
N=C(N)c1ccccc1 [Ref.4, Benzamidine]	–	–	–	–	–	< 4.00	pIC50 [8]: < 3.00; pIC50 (TMPRSS2 [5]): < 4.00
CC(=O)N[C@@H](CCCNC(=N)N)C(=O)N[C@@H](CCC(=O)O)C(=O)N[C@@H](CS)C(=O)N[C@@H](CCCNC(=N)N)C(=O)c1nc2ccccc2s1 [Compound 7, Ac-RECR-kbt]	–	< 4.00	6.21	6.08	–	–	–
N=C(N)Nc1ccc(C(=O)Oc2ccc(CC(=O)O)cc2)cc1 [Ref.8, FOY 251]	–	–	–	–	–	4.67	pIC50 (Recomb. Human Thrombin [10]): < 4.00
CC(=O)N[C@@H](CC(N)=O)C(=O)N[C@@H](CCC(=O)O)C(=O)N[C@@H](CCC(N)=O)C(=O)N[C@@H](CCCNC(=N)N)C(=O)c1nc2ccccc2s1 [Compound 6, Ac-NEQR-kbt]	5.85	< 4.00	5.09	5.93	4.47	–	–
CC(=O)N[C@@H](CCC(N)=O)C(=O)N[C@@H](CCC(N)=O)C(=O)N[C@H](C(=O)N[C@@H](CCCNC(=N)N)C(=O)c1nc2ccccc2s1)C(C)C [Compound 4, Ac-QQVR-kbt]	5.69	< 5.00	5.82	6.30	4.23	–	–
CC(=O)N[C@@H](CCCCN)C(=O)N[C@@H](CCC(N)=O)C(=O)N[C@@H](CC(C)C)C(=O)N[C@@H](CCCNC(=N)N)C(=O)c1nc2ccccc2s1 [Ref.1, Ac-KQLR-kbt, reference compound]	5.52	< 4.00	6.47	5.46	4.81	–	–
CC(=O)N[C@@H](CC(C)C)C(=O)N[C@@H](CC(C)C)C(=O)N[C@H](C=O)CCCNC(=N)N [Ref.3, Leupeptin]	–	–	–	–	–	< 4.86	pIC50 [8]: 4.43; pIC50 (TMPRSS2 [5]): < 4.56; pIC50 (Recomb. Human Thrombin [10]): < 4.00
CC(=O)NCC(=O)N[C@@H](CCC(N)=O)C(=O)N[C@@H](CCCNC(=N)N)C(=O)N[C@@H](CCCNC(=N)N)C(=O)c1nc2ccccc2s1 [Compound 3, Ac-GQRR-kbt]	5.89	< 4.00	4.66	6.48	4.70	–	–
N=C(N)NCCC[C@H](NC(=O)[C@@H]1CCCN1C(=O)[C@H](N)Cc1ccccc1)C(=O)CCl [Ref.6, PPack]	–	–	–	–	–	7.13	pIC50 (TMPRSS2 [5]): < 4.00; pIC50 (Recomb. Human Thrombin [10]): 9.57
CC(=O)N[C@@H](CCCNC(=N)N)C(=O)N[C@@H](CCC(N)=O)C(=O)N[C@@H](CC(C)C)C(=O)N[C@@H](CCCNC(=N)N)C(=O)c1nc2ccccc2s1 [Compound 1, Ac-RQLR-kbt]	6.10	< 4.00	7.33	5.90	4.95	–	–
